Source: patent publication US4996225A, “Tri-phenyl alkane derivatives and their oestrogenic, anti-oestrogenic and progestanic uses” (Farmos Group Ltd., priority 1982, dated 1991)
“Also recorded” adds a separate entry of the source.

Legend:
rat prostatic carcinoma = test: antitumour effect against transplantable prostatic carcinoma; format: in vivo; conditions: 1 mg/kg, 12 days' treatment
From the text: The anti-tumour effect was investigated in vivo against DMBA-induced rat mammary adenocarcinomas, transplantable mammary and ovarial adenocarcinoma and transplantable prostatic squamous cell carcinoma by the following methods: The activity of the molecules against other tumours was studied by administering the molecules by stomach tube to animals implanted with transplantable uterus sarcoma (mice) or prostatic adenocarcinoma (rats). Daily or twice weekly administration schedules were employed. NMRI mice (about 20 g, females) and Fischer 344 rats (about 200 g, males) were used. Estramustine phosphate served as positive control. Transplantable rat mammary adenocarcinoma was developed by inoculating pieces of DMBA-induced carcinomas subcutaneously to healthy mature female rats. A tumour which expressed malignant growth was selected for further transplantations. Other transplantable tumours were inoculated subcutaneously as washed cell suspension (10^7 cells/animal).

[1] = tested on: MCF-7 cell line (human mammary adenocarcinoma); test: anti-tumour effect in vitro, growth of MCF-7 cell line (bioluminescence assay, intracellular ATP); format: cell-based; conditions: read-out: Antitumour effect against MCF-7 cell line (IC50 = concentration of compound where 50% inhibition of cell growth could be seen)
Procedure: The anti-tumour effect was studied in vitro as follows:
The amount of living cells after 4 h, 24 h and 48 h incubations were determined by bioluminescence assay (intracellular ATP determination).
inhibition of cell growth could be seen.

oestrogen receptors = molecular target: T1, oestrogen receptors (Rattus norvegicus, UniProt P06211); test: affinity for oestrogen receptors, competition with 3H-17-β-estradiol in rat uterus cytosol (dextran-charcoal method); format: binding; conditions: read-out: Estrogen receptor affinity (concentration of compound where 50% competition (inhibition) with 3H-estradiol occurred)
T1 construct: rat uterus cytosol preparation; from tissue; host or cells: rat uterus cytosol
T1 sequence (P06211 1-600): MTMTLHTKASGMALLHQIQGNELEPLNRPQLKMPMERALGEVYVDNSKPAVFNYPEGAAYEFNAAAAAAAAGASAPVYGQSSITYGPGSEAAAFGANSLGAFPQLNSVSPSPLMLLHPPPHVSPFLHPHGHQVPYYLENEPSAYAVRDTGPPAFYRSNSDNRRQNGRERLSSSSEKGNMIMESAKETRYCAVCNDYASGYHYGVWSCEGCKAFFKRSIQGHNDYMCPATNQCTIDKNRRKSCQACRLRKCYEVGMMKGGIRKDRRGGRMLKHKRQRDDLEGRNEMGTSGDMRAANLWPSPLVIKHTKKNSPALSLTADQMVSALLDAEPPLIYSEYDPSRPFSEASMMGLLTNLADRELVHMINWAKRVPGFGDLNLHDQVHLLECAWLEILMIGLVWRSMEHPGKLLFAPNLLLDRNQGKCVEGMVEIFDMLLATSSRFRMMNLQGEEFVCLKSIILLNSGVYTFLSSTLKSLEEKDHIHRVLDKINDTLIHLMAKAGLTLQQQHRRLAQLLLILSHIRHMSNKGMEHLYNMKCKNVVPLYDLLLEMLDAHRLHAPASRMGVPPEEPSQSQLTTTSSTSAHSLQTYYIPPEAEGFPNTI
Procedure: The affinity of the new compounds for oestrogen receptors was determined by the ability to compete with ^3 H-labelled 17-β-estradiol in rat uterus cytosol preparation. After incubation, receptor-bound and receptor-unbound ligands were separated by a known dextrancharcoal method.

[2] = tested on: estradiol induced weight increase in immature mouse uterus; test: antiestrogenic effect, inhibition of oestrogen-induced uterus weight increase in immature mice; format: in vivo
Procedure: (§1) The oestrogen-antiestrogen (progesterone) effect of the new compounds in vivo was determined as follows: (1) The oestrogenic properties were determined by administering the new compounds, suspended in sesame oil, subcutaneously to 21 days old immature mice on three consecutive days. The mice were killed on the fourth day and the uterus was weighed. […] The weight correlates with the oestrogenic effect of the compound tested. […] In this case, the ability of the molecules to inhibit oestrogen-induced uterus weight increase was also investigated.

[3] = tested on: DMBA-induced rat mammary adenocarcinomas; test: antitumour effect in vivo against DMBA-induced rat mammary adenocarcinoma; conditions: compared with compound 7
Procedure: The anti-tumour effect was investigated in vivo against DMBA-induced rat mammary adenocarcinomas, transplantable mammary and ovarial adenocarcinoma and transplantable prostatic squamous cell carcinoma by the following methods:
Mammary adenocarcinomas were induced by DMBA in 35-40 days old female rats. […] Tumour size and numbers of tumours were evaluated twice a week. Tumour sizes in the control group, treated with solvent, were compared with the test groups.
The size refers to the width×height of the tumour. The growth rate is a difference between sizes compared with that of the first day of the treatment.

immature mouse uterus [4] = test: progestanic effect, uterus weight of immature mice (alone or with medroxyprogesterone acetate); format: in vivo; set-up: reduction in the weight of a mouse uterus, given alone / reduction in the weight of uterus with medroxyprogesterone / reduction in the weights of mice uterus, given alone: concentration or dose not given beside the values
immature mouse uterus [5] = test: oestrogenic effect, uterus weight of immature mice; format: in vivo; conditions: up to 5 mg/kg
Procedure: as §1

[6] = with medroxyprogesterone 0.06 mg/kg

IC50 [1]: 5000 to 10000 nM | IC50 (oestrogen receptors): 100 to 1000 nM
Structure (SMILES): Oc1ccc([C@@]2(c3ccccc3)OCC[C@@H]2c2ccccc2)cc1 (relative stereo) [Compound 2, 2,3-diphenyl-2-(4-hydroxyphenyl)tetrahydrofuran]
size of prostatic tumour smaller than that of control (rat prostatic carcinoma): 29% | antiestrogenic effect of its own (in words) ([2]; up to 5 mg/kg): no antiestrogenic or estrogenic effect of its own | effect with estradiol (in words) ([2]; with estradiol 0.05 mg/kg): no synergism | antitumour effect against DMBA-induced mammary cancer (in words) [3]: Antitumour effect less than that of compound 7 | decrease of weight of mouse uterus (immature mouse uterus [4]; 0.05 mg/kg): 50% | effect given alone: progestanic (in words) (immature mouse uterus [4]; given alone): progestanic | reduction in the weights of mice uterus, given alone (immature mouse uterus [4]; given alone, Table 2A): 50% | progestanic effect (in words) (immature mouse uterus [4]; immature mouse uterus): could purely be considered to be due to its progestanic effect | interaction with medroxyprogesterone (in words) (immature mouse uterus [4]; with medroxyprogesterone): synergistic effect with medroxyprogesterone | effect with medroxyprogesterone (in words) (immature mouse uterus [4]; [6]): synergistic | reduction in the weights of mice uterus with medroxyprogesterone, compared to control (immature mouse uterus [4]; [6]): 53% | estrogenic effect of their own (in words) (immature mouse uterus [5]): no estrogenic effect of their own; also recorded: no antiestrogenic or estrogenic effect of its own
